Results taken from ChEMBL document CHEMBL5727714, “Amino compounds for treatment of medical disorders” (2020).

Biological target: Complement factor D (Homo sapiens, UniProt P00746)
Assay: Inhibition Assay: Human Factor D (purified from human serum, Complement Technology, Inc.) at 80 nM final concentration is incubated with test compound at various concentrations for 5 minutes at room temperature in 50 mM Tris, 1M NaCl, pH 7.5. A synthetic substrate Z-L-Lys-SBzl and DTNB (Ellman's reagent) are added to final concentrations of 100 Î¼M each. Absorbance at 405 nm (A405) is recorded at 30 second intervals for 30 minutes using a microplate spectrophotometer. IC50 values are calculated by nonlinear regression of complement Factor D reaction rates as a function of test compound concentration.

Sequence of Complement factor D (P00746 whole entry): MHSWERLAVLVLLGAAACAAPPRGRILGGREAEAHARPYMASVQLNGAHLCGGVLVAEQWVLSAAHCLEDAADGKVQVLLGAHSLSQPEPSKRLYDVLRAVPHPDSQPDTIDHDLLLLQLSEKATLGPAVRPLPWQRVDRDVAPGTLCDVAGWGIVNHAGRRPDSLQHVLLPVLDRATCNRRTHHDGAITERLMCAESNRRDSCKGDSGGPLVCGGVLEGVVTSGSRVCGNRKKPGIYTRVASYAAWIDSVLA

CC(=O)c1cn(CC(=O)N2C[C@H](F)C[C@H]2C(=O)Nc2cccc(Cl)c2C(F)(F)F)c2ccc(Nc3cncnc3)cc12
IC50: < 1 µM
